pEC50, pIC50: −log10 of the molar value. Read-outs that look alike come from different tables or passages of the source.
How the values were obtained:
[1] = biological target: T1, Btbc1 (bovine heart mitochondrial cyt bc1, Complex III) (Bos taurus, UniProt P00157+P13272); settings: cited from earlier work; for incubation time to reach full inhibitory capacity: classic compounds, typical
[2] = biological target: T2, Rsbc1 (cyt bc1 from Rhodobacter sphaeroides) (Cereibacter sphaeroides, UniProt Q02761+Q02762); settings: read-out: half-maximum inhibition (IC50); previous work; cited from earlier work
T2 sequence (Q02761 1-445): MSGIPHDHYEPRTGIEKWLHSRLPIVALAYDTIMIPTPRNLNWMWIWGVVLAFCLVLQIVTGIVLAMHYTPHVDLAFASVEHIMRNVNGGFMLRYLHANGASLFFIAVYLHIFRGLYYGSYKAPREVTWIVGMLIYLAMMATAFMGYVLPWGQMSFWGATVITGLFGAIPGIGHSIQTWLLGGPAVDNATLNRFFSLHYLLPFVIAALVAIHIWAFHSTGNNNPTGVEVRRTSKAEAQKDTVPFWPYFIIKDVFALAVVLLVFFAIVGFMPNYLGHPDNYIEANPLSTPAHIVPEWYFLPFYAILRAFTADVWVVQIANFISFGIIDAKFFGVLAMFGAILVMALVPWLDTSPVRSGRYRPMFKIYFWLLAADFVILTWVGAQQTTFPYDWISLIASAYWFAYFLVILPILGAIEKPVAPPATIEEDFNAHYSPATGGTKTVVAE
T2 sequence (Q02762 1-187): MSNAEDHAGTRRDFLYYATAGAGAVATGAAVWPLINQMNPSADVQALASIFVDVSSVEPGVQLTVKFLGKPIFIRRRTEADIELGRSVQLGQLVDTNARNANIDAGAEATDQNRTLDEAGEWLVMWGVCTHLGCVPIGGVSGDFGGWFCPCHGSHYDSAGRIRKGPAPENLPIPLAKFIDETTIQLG
T2 sequence (Q02760 23-285 partner): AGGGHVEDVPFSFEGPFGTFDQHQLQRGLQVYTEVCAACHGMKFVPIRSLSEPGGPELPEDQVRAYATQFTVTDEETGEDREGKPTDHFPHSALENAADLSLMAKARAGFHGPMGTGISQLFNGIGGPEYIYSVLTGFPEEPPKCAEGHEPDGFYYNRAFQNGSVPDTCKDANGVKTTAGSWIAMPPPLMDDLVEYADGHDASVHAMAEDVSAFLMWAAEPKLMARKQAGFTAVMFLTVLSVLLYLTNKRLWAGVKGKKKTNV

[3] = test system: yeast cyt b L275F mutation; settings: cited from earlier work
[4] = biological target: T1, Btbc1 (bovine heart mitochondrial cyt bc1, Complex III); experiment: Inhibition of bovine heart mitochondrial cyt bc1 activity; format: biochemical; settings: IC50, incubation time 5 minutes; cyt c reduction
[5] = test system: wild-type P. falciparum-infected erythrocytes; settings: cited from earlier work
[6] = test system: P. falciparum cyt b mutant parasites (F264L, A122T, Y268S); settings: cyt b Y268S mutant parasites of the 106/1 line; cited from earlier work

For `C[C@@]1(c2ccc(Oc3ccccc3)cc2)OC(=O)N(Nc2ccccc2)C1=O` (racemic) [famoxadone], the pIC50 ([1]; read-out: half-maximum inhibition (IC50), previous work) is listed as 6.38, the pIC50 [2] is listed as 8.85 and the “reduction in the IC50 value” [3] is listed as 20 fold.

In the case of `CCCCCCCCCCCC1=C(O)C(=O)c2scnc2C1=O` [UHDBT, 5-n-undecyl-6-hydroxy-4,7-dioxobenzothiazole], the “incubation time to reach full inhibitory capacity” value [1] is given as “less than 5 min”.

For `O=C1C(O)=C([C@H]2CC[C@H](c3ccc(Cl)cc3)CC2)C(=O)c2ccccc21` [atovaquone], the pIC50 [4] is given as 5.58, the pIC50 ([5]; P. falciparum wild-type lines) is given as ~7.89 and the pEC50 ([5]; wild-type parasites of the 106/1 line) is given as 8.96. The pEC50 [6] was < 5.17.

In the case of `CO/C(=C/C(N)=O)[C@H](C)[C@H](/C=C/c1csc(-c2csc([C@@H](C)/C=C/C=C/C(C)C)n2)n1)OC` [myxothiazol], the “incubation time to reach full inhibitory capacity” value [1] is listed as “less than 5 min”.

In the case of `C/C=C(C)/C=C/C=C/[C@H](OC)[C@@H](C)[C@@H](OC)[C@@H](C)CCc1oc2c(O)c(OC)cc(OC)c2c(=O)c1C` [stigmatellin], the pIC50 [4] is listed as 9.00 and the “incubation time to reach full inhibitory capacity” value [1] is listed as “less than 5 min”.

Reference: publication PMC10404626 (The Journal of Biological Chemistry, 2023)
